Test results: US20050239784A1 (priority 2002, published 2005)

Key:
CDK4 = CDK4 (Homo sapiens, UniProt P11802); assay: biochemical; settings: read-out: CDK4 SPA (Ex. C.1): pIC50 values (converted)
AKT3 [1] = target: T1, AKT3 (Homo sapiens, UniProt Q9Y243); assay: biochemical; settings: read-out: AKT3 pep. (Ex. C.3): pIC50 values (converted)
Target sequence in this assay (Q9Y243 whole entry, species assumed): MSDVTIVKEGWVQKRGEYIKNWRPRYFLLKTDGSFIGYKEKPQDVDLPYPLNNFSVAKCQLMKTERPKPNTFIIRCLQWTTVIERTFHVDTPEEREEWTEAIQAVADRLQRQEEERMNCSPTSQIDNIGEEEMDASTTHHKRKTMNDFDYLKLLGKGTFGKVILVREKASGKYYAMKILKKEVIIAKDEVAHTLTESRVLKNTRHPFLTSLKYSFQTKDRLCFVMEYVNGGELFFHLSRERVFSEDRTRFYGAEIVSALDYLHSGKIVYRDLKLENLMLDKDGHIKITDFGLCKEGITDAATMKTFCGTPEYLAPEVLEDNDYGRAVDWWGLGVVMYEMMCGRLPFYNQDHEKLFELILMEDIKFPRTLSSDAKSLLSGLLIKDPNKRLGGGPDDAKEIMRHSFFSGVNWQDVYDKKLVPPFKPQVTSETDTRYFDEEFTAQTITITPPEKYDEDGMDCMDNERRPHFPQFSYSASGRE

AKT3 [2] = target: T1, AKT3; assay: cell-based; settings: read-out: AKT cel (Ex. C.6): pIC50 values (converted)
Target sequence in this assay (Q9Y243 whole entry): as the sequence (Q9Y243 whole entry, species assumed) above

A2780 cells = assay: Cytotox survival of A2780 cells after 3 days; type: cell-based; settings: Homo sapiens, A2780, 72 h, read-out: Cytotox survival of A2780 cells after 3 days - pIC50 values, A2780 cells, 3 days (converted)
Description: In an alternative assay, the growth inhibitory effect of the compounds was tested on the ovarian carcinoma cell line A2780 using art known cytotoxicity assays such as LIVE/DEAD (Molecular Probes) MTT.

CDC25B = target: T2, CDC25B (Homo sapiens, UniProt P30305); assay: biochemical; settings: read-out: CDC25B WT (Ex. C.5): pIC50 values (converted)
T2 sequence (P30305 1-580): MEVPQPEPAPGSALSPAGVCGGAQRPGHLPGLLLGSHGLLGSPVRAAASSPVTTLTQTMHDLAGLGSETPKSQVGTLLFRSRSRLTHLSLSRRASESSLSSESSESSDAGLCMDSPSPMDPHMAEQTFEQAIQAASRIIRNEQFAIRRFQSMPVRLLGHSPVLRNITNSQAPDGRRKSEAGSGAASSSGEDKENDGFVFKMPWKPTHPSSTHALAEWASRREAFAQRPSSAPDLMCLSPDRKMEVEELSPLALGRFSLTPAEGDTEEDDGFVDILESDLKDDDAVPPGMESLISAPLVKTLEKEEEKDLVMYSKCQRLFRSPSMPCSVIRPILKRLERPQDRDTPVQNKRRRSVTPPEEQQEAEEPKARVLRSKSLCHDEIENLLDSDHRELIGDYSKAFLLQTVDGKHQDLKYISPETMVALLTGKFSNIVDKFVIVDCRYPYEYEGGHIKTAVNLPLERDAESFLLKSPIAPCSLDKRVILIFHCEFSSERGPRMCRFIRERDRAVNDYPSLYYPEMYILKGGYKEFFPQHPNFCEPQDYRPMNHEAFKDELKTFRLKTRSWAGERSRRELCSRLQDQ

physchem = settings: pH 7.4, aqueous buffer, kinetic from dmso stock

Sequence of CDK4 (P11802 whole entry, species assumed): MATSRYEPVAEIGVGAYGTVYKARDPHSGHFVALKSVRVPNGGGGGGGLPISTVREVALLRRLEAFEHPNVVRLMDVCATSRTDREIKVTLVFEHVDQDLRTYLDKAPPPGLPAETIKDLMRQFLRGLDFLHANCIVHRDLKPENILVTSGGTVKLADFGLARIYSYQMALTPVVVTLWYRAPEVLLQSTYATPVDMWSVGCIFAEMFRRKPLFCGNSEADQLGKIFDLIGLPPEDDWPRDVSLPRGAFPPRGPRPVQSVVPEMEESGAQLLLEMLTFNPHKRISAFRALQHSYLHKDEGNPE
Sequence of CDK4 (P24385 whole entry partner, species assumed): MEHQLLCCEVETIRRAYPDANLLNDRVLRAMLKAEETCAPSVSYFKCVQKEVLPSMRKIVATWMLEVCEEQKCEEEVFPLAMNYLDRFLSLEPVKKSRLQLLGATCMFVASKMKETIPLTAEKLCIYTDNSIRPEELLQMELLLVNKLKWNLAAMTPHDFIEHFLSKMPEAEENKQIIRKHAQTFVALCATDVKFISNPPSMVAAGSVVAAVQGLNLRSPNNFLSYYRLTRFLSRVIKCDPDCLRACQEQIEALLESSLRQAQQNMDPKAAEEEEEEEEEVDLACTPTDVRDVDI

`COc1cc(-c2nc3c(=O)n(C)c(=O)nc-3n(C)n2)ccc1OCCN1CCN(C)CC1` showed a melting point of 239 °C.

`COc1cc(-c2nc3c(=O)n(C)c(=O)nc-3n(C(C)C)n2)ccc1OCCN1CCN(C)CC1` showed a melting point of 233 °C.

With `Cn1nc(-c2ccccc2)nc2c(=O)n(C3CCN(C(=O)OC(C)(C)C)CC3)c(=O)nc1-2` the melting point was > 250 °C.

For `CCCC(C)n1nc(-c2ccccc2)nc2c(=O)n(C)c(=O)nc1-2` (stereo not shown), the melting point was 216 °C.

For `CCOC(=O)C(C)n1nc(-c2ccccc2)nc2c(=O)n(C)c(=O)nc1-2` (stereo not shown), the melting point was 215 °C.

`Cn1c(=O)nc2n(C3CCN(C(=O)OC(C)(C)C)CC3)nc(-c3ccccc3)nc-2c1=O` showed a melting point of 250 °C.

In the case of `Cn1c(=O)nc2n(C3CCNCC3)nc(-c3ccccc3)nc-2c1=O`, the melting point is reported as > 250 °C.

For `COc1cc(-c2nc3c(=O)n(C)c(=O)nc-3n(C3CCCC3)n2)cc(OC)c1OCCN1CCOCC1`, the melting point was 187.5 to 209 °C.

With `COc1cc(-c2nc3c(=O)n(C)c(=O)nc-3n(C(C)C)n2)ccc1OCCN1CCCCC1` the melting point was 222 °C.

`CC(C)n1nc(-c2ccc(OCCN3CCOCC3)cc2)nc2c(=O)n(C)c(=O)nc1-2` showed a melting point of 232 °C.

In the case of `CC(C)n1nc(-c2ccc(CN(C)C3CCN(S(=O)(=O)N(C)C)CC3)cc2)nc2c(=O)n(C)c(=O)nc1-2` [Compound 113], the IC50 (CDK4) is reported as 0.151 µM, the IC50 (AKT3 [1]) is reported as 0.184 µM and the IC50 (AKT3 [2]) is reported as > 3.02 µM. The IC50 (A2780 cells) was 0.22 µM, the IC50 (CDC25B) was 0.119 µM and the solubility (physchem) was > 1800 µM.

For `Cn1c(=O)nc2n(C3CCCC3)nc(-c3ccc(CN4CCNCC4)cc3)nc-2c1=O` [Compound 153], the IC50 (CDK4) was 0.369 µM, the IC50 (AKT3 [1]) was 0.335 µM and the IC50 (AKT3 [2]) was 0.495 µM. The IC50 (A2780 cells) was 0.181 µM, the IC50 (CDC25B) was 0.046 µM and the solubility (physchem) was > 1800 µM.
